Reference: patent US10112899B2 (ViiV HEALTHCARE UK LIMITED, priority 2014, dated 2018)
pIC50: −log10 of the molar value.

Tested on: HIV in the HTLV-1 transformed cell line MT-4
Test: organism not typed
Assay type: cell-based
Conditions: MT-4 cells, luciferase/cell titer glo readout after 96 hours, 10 point dose response

Row | SMILES | pIC50 (MT4, 96 h) | pIC50
1 | COc1ccc(C)c(C(=O)N2Cc3c(C)c(-c4ccc(C)cc4)c([C@H](OC(C)(C)C)C(=O)O)c(C)c3C2)c1 [Example 249, (S)-2-(tert-butoxy)-2-(2-(5-methoxy-2-methylbenzoyl)-4,7-dimethyl-6-(p-tolyl)isoindolin-5-yl)acetic acid] | 8.30 | 
2 | COc1cccc(C(=O)N2Cc3c(C)c(-c4cc(F)c5c(c4C)CCCO5)c([C@H](OC(C)(C)C)C(=O)O)c(C)c3C2)c1F (atropisomer, axis not shown; (M)) [Example 148, (S)-2-(tert-butoxy)-2-((M)-2-(2-fluoro-3-methoxybenzoyl)-6-(8-fluoro-5-methylchroman-6-yl)-4,7-dimethylisoindolin-5-yl)acetic acid] | 8.05 | 
3 | Cc1c(-c2c(C)c3c(c(C)c2[C@H](OC(C)(C)C)C(=O)O)CN(C(=O)NCC(C)(C)C)C3)cc(F)c2c1CCCO2 (atropisomer, axis not shown; (M)) [Example 207, (S)-2-(tert-butoxy)-2-((M)-6-(8-fluoro-5-methylchroman-6-yl)-4,7-dimethyl-2-(neopentylcarbamoyl)isoindolin-5-yl)acetic acid] | 8.40 | 
4 | Cc1ccc(-c2c(C)c3c(c(C)c2[C@H](OC(C)(C)C)C(=O)O)CN(C(=O)NC2CCCCC2)C3)cc1 [Example 4, (S)-2-(tert-Butoxy)-2-(2-(cyclohexylcarbamoyl)-4,7-dimethyl-6-(p-tolyl)isoindolin-5-yl)acetic acid] | 7.48 | 
5 | CCOCCC(=O)N1Cc2c(C)c(-c3ccc(C)cc3)c([C@H](OC(C)(C)C)C(=O)O)c(C)c2C1 [Example 232, (S)-2-(tert-butoxy)-2-(2-(3-ethoxypropanoyl)-4,7-dimethyl-6-(p-tolyl)isoindolin-5-yl)acetic acid] | 6.83 | 
6 | Cc1ccc(-c2c(C)c3c(c(C)c2[C@H](OC(C)(C)C)C(=O)O)CN(C(=O)N[C@@H](C)C2CCCCC2)C3)cc1 [Example 99, (S)-2-(tert-butoxy)-2-(2-(((S)-1-cyclohexylethyl)carbamoyl)-4,7-dimethyl-6-(p-tolyl)isoindolin-5-yl)acetic acid] | 7.35 | 
7 | Cc1cc(Cl)ccc1-c1c(C)c2c(c(C)c1C(OC(C)(C)C)C(=O)O)CN(C(=O)N1CCC(F)(F)C1)C2 (stereo not shown) [Example 323, 2-(tert-butoxy)-2-(6-(4-chloro-2-methylphenyl)-2-(3,3-difluoropyrrolidine-1-carbonyl)-4,7-dimethylisoindolin-5-yl)acetic acid] | 7.89 | 
8 | Cc1ccc(-c2c(C)c3c(c(C)c2[C@H](OC(C)(C)C)C(=O)O)CN(C(=O)C2CCCC2)C3)cc1 [Example 112, (S)-2-(tert-butoxy)-2-(2-(cyclopentanecarbonyl)-4,7-dimethyl-6-(p-tolyl)isoindolin-5-yl)acetic acid] | 7.54 | 
9 | Cc1ccc(-c2c(C)c3c(c(C)c2[C@H](OC(C)(C)C)C(=O)O)CN(C(=N)N2CCCCC2)C3)cc1 [Example 128, (S)-2-(tert-butoxy)-2-(2-(imino(piperidin-1-yl)methyl)-4,7-dimethyl-6-(p-tolyl)isoindolin-5-yl)acetic acid] | 5.07 | 
10 | Cc1ccc(-c2c(C)c3c(c(C)c2[C@H](OC(C)(C)C)C(=O)O)CN(C(=O)c2nccn2C)C3)cc1 [Example 238, (S)-2-(tert-butoxy)-2-(4,7-dimethyl-2-(1-methyl-1H-imidazole-2-carbonyl)-6-(p-tolyl)isoindolin-5-yl)acetic acid] |  | 6.03
11 | Cc1c2c(c(C)c([C@H](OC(C)(C)C)C(=O)O)c1C1=CCC(C)(C)CC1)CN(C(=O)c1cccc3c1OCO3)C2 [Example 307, (S)-2-(2-(benzo[d][1,3]dioxole-4-carbonyl)-6-(4,4-dimethylcyclohex-1-en-1-yl)-4,7-dimethylisoindolin-5-yl)-2-(tert-butoxy)acetic acid] | 8.40 | 
12 | Cc1c(-c2c(C)c3c(c(C)c2[C@H](OC(C)(C)C)C(=O)O)CN(C(=O)N2CCCCC2)C3)cc(F)c2c1CCCO2 (atropisomer, axis not shown; (M)) [Example 101, (2S)-2-(tert-butoxy)-2-(6-(M)-(8-fluoro-5-methylchroman-6-yl)-4,7-dimethyl-2-(piperidine-1-carbonyl)isoindolin-5-yl)acetic acid] | 8.52 | 
13 | Cc1ccc(-c2c(C)c3c(c(C)c2[C@H](OC(C)(C)C)C(=O)O)CN(C(=O)N[C@H]2CC[C@H](C)CC2)C3)cc1 [Example 33, (S)-2-(tert-butoxy)-2-(4,7-dimethyl-2-(((1r,4S)-4-methylcyclohexyl)carbamoyl)-6-(p-tolyl)isoindolin-5-yl)acetic acid] | 6.21 | 
14 | Cc1ccc(-c2c(C)c3c(c(C)c2[C@H](OC(C)(C)C)C(=O)O)CN(Cc2cccc(Cl)c2)C3)cc1 [Example 45, (2S)-2-(tert-butoxy)-2-{2-[(3-chlorophenyl)methyl]-4,7-dimethyl-6-(4-methylphenyl)-2,3-dihydro-1H-isoindol-5-yl}acetic acid] | 7.37 | 
15 | COC(=O)N1Cc2c(C)c(-c3ccc(C)cc3)c([C@H](OC(C)(C)C)C(=O)O)c(C)c2C1 [Example 48, (2S)-2-(tert-butoxy)-2-[2-(methoxycarbonyl)-4,7-dimethyl-6-(4-methylphenyl)-2,3-dihydro-1H-isoindol-5-yl]acetic acid] | 6.24 | 
16 | Cc1ccc(-c2c(C)c3c(c(C)c2[C@H](OC(C)(C)C)C(=O)O)CN(C(=O)c2cncc(C)c2)C3)cc1 [Example 236, (S)-2-(tert-butoxy)-2-(4,7-dimethyl-2-(5-methylnicotinoyl)-6-(p-tolyl)isoindolin-5-yl)acetic acid] | 8.30 | 
17 | Cc1ccc(-c2c(C)c3c(c(C)c2[C@H](OC(C)(C)C)C(=O)O)CN(C(=O)N2CCCC[C@H]2C)C3)cc1 [Example 69, (2S)-2-(tert-butoxy)-2-[4,7-dimethyl-6-(4-methylphenyl)-2-[(2R)-2-methylpiperidine-1-carbonyl]-2,3-dihydro-1H-isoindol-5-yl]acetic acid] | 7.85 | 
18 | Cc1ccc(-c2c(C)c3c(c(C)c2[C@H](OC(C)(C)C)C(=O)O)CN(C(=O)N2CCOC[C@H]2C)C3)cc1 [Example 72, (2S)-2-(tert-butoxy)-2-{4,7-dimethyl-2-[(3R)-3-methylmorpholine-4-carbonyl]-6-(4-methylphenyl)-2,3-dihydro-1H-isoindol-5-yl}acetic acid] | 7.80 | 
19 | COc1ccc(C)c(C(=O)N2Cc3c(C)c(-c4cc(F)c5c(c4C)CCCO5)c([C@H](OC(C)(C)C)C(=O)O)c(C)c3C2)c1 (atropisomer, axis not shown; (M)) [Example 160, (S)-2-(tert-butoxy)-2-(6-((M)-8-fluoro-5-methylchroman-6-yl)-2-(5-methoxy-2-methylbenzoyl)-4,7-dimethylisoindolin-5-yl)acetic acid] | 8.40 | 
20 | Cc1cncc(C(=O)N2Cc3c(C)c(-c4cc(F)c5c(c4C)CCCO5)c([C@H](OC(C)(C)C)C(=O)O)c(C)c3C2)c1 (atropisomer, axis not shown; (M)) [Example 182, (S)-2-(tert-butoxy)-2-((M)-6-(8-fluoro-5-methylchroman-6-yl)-4,7-dimethyl-2-(5-methylnicotinoyl)isoindolin-5-yl)acetic acid] | 8.30 | 
21 | Cc1c(Cl)cccc1C(=O)N1Cc2c(C)c(-c3cc(F)c4c(c3C)CCCO4)c([C@H](OC(C)(C)C)C(=O)O)c(C)c2C1 (atropisomer, axis not shown; (M)) [Example 172, (S)-2-(tert-butoxy)-2-((M)-2-(3-chloro-2-methylbenzoyl)-6-(8-fluoro-5-methylchroman-6-yl)-4,7-dimethylisoindolin-5-yl)acetic acid] | 8.15 | 
22 | Cc1c(-c2c(C)c3c(c(C)c2[C@H](OC(C)(C)C)C(=O)O)CN(Cc2cccc(F)c2)C3)cc(F)c2c1CCCO2 (atropisomer, axis not shown; (M)) [Example 8, (2S)(M)-2-(tert-Butoxy)-2-(-6-(8-fluoro-5-methylchroman-6-yl)-2-(3-fluorobenzyl)-4,7-dimethylisoindolin-5-yl)acetic acid] | 8.30 | 
23 | Cc1c(-c2c(C)c3c(c(C)c2[C@H](OC(C)(C)C)C(=O)O)CN(C(=O)c2cccc(F)c2)C3)ccc2c1CCCO2 [Example 305, (2S)-2-(tert-butoxy)-2-(2-(3-fluorobenzoyl)-4,7-dimethyl-6-(5-methylchroman-6-yl)isoindolin-5-yl)acetic acid] | 8.70 | 
24 | Cc1ccc(-c2c(C)c3c(c(C)c2[C@H](OC(C)(C)C)C(=O)O)CN(C(=O)C2(C)CCCCC2)C3)cc1 [Example 243, (S)-2-(tert-butoxy)-2-(4,7-dimethyl-2-(1-methylcyclohexanecarbonyl)-6-(p-tolyl)isoindolin-5-yl)acetic acid] | 7.74 | 
25 | Cc1ccc(-c2c(C)c3c(c(C)c2[C@H](OC(C)(C)C)C(=O)O)CN(C(=O)c2cc(F)c(F)c(Cl)c2)C3)cc1 [Example 280, (S)-2-(tert-butoxy)-2-(2-(3-chloro-4,5-difluorobenzoyl)-4,7-dimethyl-6-(p-tolyl)isoindolin-5-yl)acetic acid] | 8.10 | 
26 | Cc1c(-c2c(C)c3c(c(C)c2[C@H](OC(C)(C)C)C(=O)O)CN(C(=O)c2cccc4c2CCC4)C3)cc(F)c2c1CCCO2 (atropisomer, axis not shown; (M)) [Example 161, (S)-2-(tert-butoxy)-2-(2-(2,3-dihydro-1H-indene-4-carbonyl)-6-((M)-8-fluoro-5-methylchroman-6-yl)-4,7-dimethylisoindolin-5-yl)acetic acid] | 8.52 | 
27 | Cc1ccc(-c2c(C)c3c(c(C)c2[C@H](OC(C)(C)C)C(=O)O)CN(C(=O)c2ccc(Cl)c(Cl)c2)C3)cc1 [Example 276, (S)-2-(tert-butoxy)-2-(2-(3,4-dichlorobenzoyl)-4,7-dimethyl-6-(p-tolyl)isoindolin-5-yl)acetic acid] | 7.80 | 
28 | Cc1ccc(-c2c(C)c3c(c(C)c2[C@H](OC(C)(C)C)C(=O)O)CN(C(=O)N2CCC(C)(C)C2)C3)cc1 [Example 291, (S)-2-(tert-butoxy)-2-(2-(3,3-dimethylpyrrolidine-1-carbonyl)-4,7-dimethyl-6-(p-tolyl)isoindolin-5-yl)acetic acid] | 8.30 | 
